Here are results for 5 molecules from paper PMC2193020 (The Journal of Experimental Medicine, 1999).

Assay [1] deals with T1, I-A^s (Mus musculus, UniProt P06345+P14437).
T1 sequence (P14437 1-233): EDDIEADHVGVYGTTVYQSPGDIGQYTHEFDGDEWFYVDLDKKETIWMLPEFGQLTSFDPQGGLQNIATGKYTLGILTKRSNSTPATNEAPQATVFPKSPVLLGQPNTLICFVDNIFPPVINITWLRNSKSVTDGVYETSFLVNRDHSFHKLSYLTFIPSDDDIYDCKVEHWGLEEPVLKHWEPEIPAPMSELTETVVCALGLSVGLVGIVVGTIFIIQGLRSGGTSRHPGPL
T1 sequence (P06345 28-263): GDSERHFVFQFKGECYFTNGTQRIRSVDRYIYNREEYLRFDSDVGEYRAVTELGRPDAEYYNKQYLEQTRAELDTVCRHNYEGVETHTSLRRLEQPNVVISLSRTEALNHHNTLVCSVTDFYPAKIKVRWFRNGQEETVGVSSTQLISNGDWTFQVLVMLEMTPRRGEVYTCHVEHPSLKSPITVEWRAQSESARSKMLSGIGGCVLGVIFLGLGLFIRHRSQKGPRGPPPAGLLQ
Put plainly: Class II peptide binding assay on purified I-A^s molecules.

In assay [2] the test system is MBP autoantibodies affinity-purified from CNS lesions. To be noted: autoantibodies from CNS lesions of 12 postmortem MS cases; ref [19], [21]; cited from earlier work.

Ends that are not written are not given here. Some results are limits rather than exact numbers.

The term IC50 denotes the concentration needed to halve the response being measured. Read a high IC50 as weaker potency in that assay.

In turn, `CC(C)C[C@H](NC(=O)[C@H](CCCNC(=N)N)NC(=O)[C@H](CCCNC(=N)N)NC(=O)CNC(=O)CN)C(=O)N[C@@H](Cc1ccccc1)C(=O)N[C@@H](Cc1ccccc1)C(=O)N[C@H](C(=O)N[C@@H](CCCCN)C(=O)N[C@@H](C)C(=O)N[C@@H](Cc1c[nH]cn1)C(=O)N[C@H](C(=O)N[C@@H](CCCNC(=N)N)C(=O)N[C@@H](CCC(=O)O)C(=O)O)C(C)C)C(C)C` [Herpes simplex DNA pol] displayed an IC50 in assay [1] of 551 nM.
For `CC[C@H](C)[C@H](NC(=O)[C@H](CC(N)=O)NC(=O)[C@H](CCCCN)NC(=O)[C@H](Cc1ccccc1)NC(=O)[C@H](Cc1ccccc1)NC(=O)[C@H](Cc1c[nH]cn1)NC(=O)[C@@H](NC(=O)[C@@H](NC(=O)[C@@H]1CCCN1C(=O)[C@H](CC(N)=O)NC(=O)[C@@H](N)CCC(=O)O)C(C)C)C(C)C)C(=O)N[C@H](C(=O)N[C@H](C(=O)N1CCC[C@H]1C(=O)N[C@@H](CCCNC(=N)N)C(=O)O)[C@@H](C)O)C(C)C` [MBPp85–99, reference compound], the IC50 in assay [1] was 667 nM.
In turn, IGGRVHFFKDISPIA [HPV 7] came in with an IC50 in assay [1] of 208 nM.
IGGRVHFFRDISPIG [HPV 40] yielded an IC50 in assay [1] of 180 nM.
Regarding VHFFKNIVTPRTP [MBPp87–99], the “Inhibition of autoantibody binding to MBP” value in assay [2] is reported as more than 95%.
